Assay results taken from article PMC7986981 (ACS Pharmacology & Translational Science, 2021).
Like-named read-outs stand apart in the source and are kept apart here. Where a SMILES comes first, the peptide text is derived from it. The star is where a group is joined. Cbz = O=C(OCc1ccccc1)*

Assays:
SARS-CoV-2 3CL-Pro = SARS-CoV-2 3CL-Pro (Severe acute respiratory syndrome coronavirus 2, UniProt P0DTD1); assay: biochemical; assay type: biochemical
[1] = oral drugs, no reference given; cited from earlier work
[2] = test system: SARS-CoV-2 cytopathic effect in Vero-E6 cells; assay type: cell-based
chymotrypsin = assay type: biochemical; settings: 1 mM DTT
SARS-CoV-2 = assay type: cell-based; settings: read-out: vRNA reduction / viral replication IC50 in Vero-E6 (qPCR)
[3] = test system: SARS-CoV-2 CPE in Caco-2 cells; settings: cited from earlier work
deubiquitinating enzymes = settings: read-out: IC50 values against several deubiquitinating enzymes; cited from earlier work
MERS 3CL-Pro = MERS 3CL-Pro (Middle East respiratory syndrome-related coronavirus, UniProt K9N7C7); assay type: biochemical; settings: read-out: IC50 MERS 3CL-Pro
Chain of MERS 3CL-Pro (K9N7C7 3248-3553 limits assumed): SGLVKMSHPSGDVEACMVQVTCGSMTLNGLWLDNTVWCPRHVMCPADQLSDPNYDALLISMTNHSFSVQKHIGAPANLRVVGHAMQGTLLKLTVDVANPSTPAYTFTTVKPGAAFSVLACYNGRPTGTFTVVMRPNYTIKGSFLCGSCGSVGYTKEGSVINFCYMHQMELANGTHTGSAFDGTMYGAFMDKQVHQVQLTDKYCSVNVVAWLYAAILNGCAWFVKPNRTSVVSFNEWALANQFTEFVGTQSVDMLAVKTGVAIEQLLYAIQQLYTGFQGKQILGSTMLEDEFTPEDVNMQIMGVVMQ

SARS-CoV 3CL-Pro = settings: cited from earlier work
[4] = 20 μM compound, result in words
[5] = read-out: SARS-CoV-2 3CL-Pro IC50
[6] = read-out: HP 3CL-Pro IC50, hit profiling, without DTT
[7] = read-out: SARS-CoV-2 3CL-Pro IC50, without DTT, values given in nM

Oc1cc2c(cc1O)[C@H]1c3ccccc3CN[C@@H]1CC2 (racemic) [Dihydrexidine]
IC50 (SARS-CoV-2 3CL-Pro; HP 3CL-Pro IC50 (μM), hit profiling, without DTT): 1.1 µM

O=c1cc(-c2ccccc2)oc2cc(O)c(O)c(O)c12 [Baicalein]
effect of DTT (0 and 1 mM) on SARS-CoV-2 3CL-Pro inhibition (SARS-CoV-2 3CL-Pro; [4]): loss of inhibitory capacity

NC(CO)C(=O)NNCc1ccc(O)c(O)c1O (stereo not drawn) [Benserazide hdrochloride]
measured acute toxicity in rodents [1]: higher than 5 mg/kg

CC[C@H](CO)Nc1nc(NCc2ccc(-c3ccccn3)cc2)c2ncn(C(C)C)c2n1 [CR8-(R)]
anti-CPE effect in Vero-E6 phenotypic assay [2]: no anti-CPE effect | IC50 (SARS-CoV-2 3CL-Pro; read-out: HP 3CL-Pro IC50): 0.8 µM

CCCCCCNC(=O)n1cc(F)c(=O)[nH]c1=O [Carmofur]
Chymotrypsin Inhibition [%] +DTT (10 μM) (chymotrypsin): 14% | effect of DTT (0 and 1 mM) on SARS-CoV-2 3CL-Pro inhibition (SARS-CoV-2 3CL-Pro; [4]): insensitive to DTT

[H]/N=C(\N/C(=N/[H])NCCCCCCNC(=N)NC(=N)Nc1ccc(Cl)cc1)Nc1ccc(Cl)cc1 [Chlorhexidine]
effect of DTT (0 and 1 mM) on SARS-CoV-2 3CL-Pro inhibition (SARS-CoV-2 3CL-Pro; [4]): not an effective inhibitor

CCN(CC)C(=S)SSC(=S)N(CC)CC [Disulfiram]
effect of DTT (0 and 1 mM) on SARS-CoV-2 3CL-Pro inhibition (SARS-CoV-2 3CL-Pro; [4]): loss of inhibitory capacity

O=c1c2ccccc2[se]n1-c1ccccc1 [Ebselen]
effect of DTT (0 and 1 mM) on SARS-CoV-2 3CL-Pro inhibition (SARS-CoV-2 3CL-Pro): loss of inhibitory capacity

CC(C)C[C@@H](C=O)NC(=O)[C@H](CC(C)C)NC(=O)[C@H](CC(C)C)NC(=O)OCc1ccccc1 [MG-132] (Cbz-Leu-Leu-Leu-aldehyde)
IC50 (SARS-CoV-2): 100 nM | anti-CPE activity against SARS-CoV-2 in Caco-2 cells (words) [3]: active

O=c1c2cc(F)ccc2sn1-c1cc(S(=O)(=O)N2CCOCC2)ccc1N1CCOCC1 [ML345]
IC50 (SARS-CoV-2 3CL-Pro; [5]): 0.02 µM

Cc1ccc(C)c(-n2sc3cc(F)ccc3c2=O)c1 [MLS0315771]
IC50 (SARS-CoV-2 3CL-Pro; [5]): 0.02 µM

O=c1c(O)c(-c2cc(O)c(O)c(O)c2)oc2cc(O)cc(O)c12 [Myricetin]
anti-CPE effect in Vero-E6 phenotypic assay [2]: not reflected in anti-CPE

Oc1cc(CNC(=S)/C=C/c2cc(O)c(O)c(Br)c2)cc(O)c1O [NT-157]
IC50 (SARS-CoV-2 3CL-Pro; read-out: SARS-CoV-2 3CL-Pro IC50 (unit inferred)): 0.5 µM

Cc1ccc(-n2sc3ccccc3c2=O)cc1 [PBIT]
IC50 (SARS-CoV-2 3CL-Pro; [5]): 0.02 µM

O=c1c2ccccc2sn1-c1ccccc1 [PD08290]
IC50 (SARS-CoV-2 3CL-Pro; [5]): 0.02 µM

N#CSc1cc(SC#N)c(N)nc1N [PR-619]
IC50 (deubiquitinating enzymes): 2000 to 10000 nM | IC50 (MERS 3CL-Pro): 2300 nM | anti-CPE activity against SARS-CoV-2 in Caco-2 cells (words) [3]: inactive | anti-CPE effect in Vero-E6 phenotypic assay [2]: inactive | IC50 (SARS-CoV-2 3CL-Pro; [6]): 0.4 µM

CCC(C)SSc1ncc[nH]1 (stereo not drawn) [PX-12]
IC50 (MERS 3CL-Pro): 7600 nM

Cn1sc(=O)n(Cc2ccccc2)c1=O [TDZD-8]
effect of DTT (0 and 1 mM) on SARS-CoV-2 3CL-Pro inhibition (SARS-CoV-2 3CL-Pro; [4]): insensitive to DTT

Nc1nc2c(ncn2[C@@H]2O[C@H](CO)[C@@H](O)[C@H]2O)c(=S)[nH]1 [Thioguanosine]
anti-CPE activity against SARS-CoV-2 in Caco-2 cells (words) [3]: anti-SARS-CoV-2 CPE effects | anti-CPE activity against SARS-CoV-2 in Caco-2 cells (words) ([3]; listed as thioguanosine): active

O=c1sn(-c2cccc3ccccc23)c(=O)n1Cc1ccccc1 [Tideglusib]
effect of DTT (0 and 1 mM) on SARS-CoV-2 3CL-Pro inhibition (SARS-CoV-2 3CL-Pro; [4]): loss of inhibitory capacity

COC(=O)CC[C@H](NC(=O)[C@H](CC(=O)OC)NC(=O)OCc1ccccc1)C(=O)N[C@H](C(=O)N[C@@H](CC(=O)OC)C(=O)CF)C(C)C [Z-DEVD-FMK]
anti-CPE effect in Vero-E6 phenotypic assay [2]: did not influence CPE | fold higher potency than previously reported (SARS-CoV-2 3CL-Pro; own IC50 versus literature reports (Z-DEVD-FMK: ref 13)): 600 fold | IC50 (SARS-CoV-2 3CL-Pro; [7]): 0.01 µM

CN1CCc2cccc3c2[C@H]1Cc1ccc(O)c(O)c1-3 [apomorphine]
measured acute toxicity in rodents [1]: higher than 5 mg/kg

CC(C)(C)NC(=O)N[C@H](C(=O)N1C[C@H]2[C@@H]([C@H]1C(=O)NC(CC1CCC1)C(=O)C(N)=O)C2(C)C)C(C)(C)C (stereo partly drawn) [boceprevir]
inhibition at 20 µM (SARS-CoV-2 3CL-Pro; read-out: HC 3CL-Pro Inhibition [%] (20 μM), hit confirmation, triplicate, 20 μM compound): < 50%

CCCC[C@@H](C=O)NC(=O)[C@H](CC(C)C)NC(=O)OCc1ccccc1 [calpeptin]
effect of DTT (0 and 1 mM) on SARS-CoV-2 3CL-Pro inhibition (SARS-CoV-2 3CL-Pro; [4]): retained its inhibitory effect independent of DTT | effect of preincubation time (15, 30, 60 min) on inhibition (SARS-CoV-2 3CL-Pro; 25 °C, 20 μM, result in words): unchanged

O=C(O[C@@H]1Cc2c(O)cc(O)cc2O[C@@H]1c1cc(O)c(O)c(O)c1)c1cc(O)c(O)c(O)c1 [epigallocatechin gallate, (-)-Epigallocatechin gallate]
effect of DTT (0 and 1 mM) on SARS-CoV-2 3CL-Pro inhibition (SARS-CoV-2 3CL-Pro; [4]): did not show DTT dependence

CC(Cc1ccc(O)c(O)c1)C(C)Cc1ccc(O)c(O)c1 (stereo not drawn) [nordihydroguaiaretic acid]
IC50 (SARS-CoV-2 3CL-Pro; [6]): 2.59 µM

CC(=O)[O][Hg][c]1ccccc1 [phenylmercuric acetate]
IC50 (SARS-CoV-2 3CL-Pro; [7]): 0.01 µM

COCCCOc1ccnc(C[S+]([O-])c2nc3ccccc3[nH]2)c1C (stereo not drawn) [rabeprazole]
measured acute toxicity in rodents [1]: higher than 5 mg/kg

Oc1c(I)cc(I)c(O)c1I [riodoxol]
measured acute toxicity in rodents [1]: higher than 5 mg/kg

CCOC(=O)/C=C/[C@H](C[C@@H]1CCNC1=O)NC(=O)[C@@H](CC(=O)[C@@H](NC(=O)c1cc(C)on1)C(C)C)Cc1ccc(F)cc1 [rupintrivir]
activity against SARS-CoV 3CL-Pro (SARS-CoV 3CL-Pro): lacks activity

zinc pyrithione
IC50 (SARS-CoV 3CL-Pro; read-out: SARS-CoV 3CL-Pro IC50): 800 nM | effect of DTT (0 and 1 mM) on SARS-CoV-2 3CL-Pro inhibition (SARS-CoV-2 3CL-Pro): lost its inhibitory effects in the presence of DTT | effect of preincubation time (15, 30, 60 min) on inhibition (SARS-CoV-2 3CL-Pro): increased with preincubation time | fold more potent after preincubation at 37 °C versus 25 °C (SARS-CoV-2 3CL-Pro): 3 fold
